The subject of data set [1] is perivascular WAT cells (PDGFRβ+ ASC). Briefly: Biodistribution of biotinylated synthetic cyclic peptide (streptavidin-Cy3), WAT. The format is in vivo, mouse. The following applies: biotinylated cyclic peptide i.v., 1 hr, CD31 / CD45 co-staining. The source says:
(§1) FIGS. 2A-J depict the validation of cyclic WAT7 Peptide (SEQ ID NOS: 13) Homing to ASC. Panels A-D are confocal anti-phage (red) and anti-CD31 (bright green) immunofluorescence in paraffin sections of formalin-fixed WAT and lung from mice intravenously injected with phage displaying WAT-homing peptide WAT7 (SEQ ID NOS: 13 AND 14) or a lung-homing peptide LU2 (SEQ ID NOS: 19). […] upon digital channel merging indicates localization (arrow) of phage on non-endothelial perivascular cells observed for WAT7 (SEQ ID NOS: 13) in WAT (A) but not in lung (B), and for LU2 (SEQ ID NO: 19) in lung (D) but not in WAT (C). […] Note the association (arrow) of cyclic WAT7 (SEQ ID NOS: 13) specifically with perivascular WAT cells (E) in a pattern overlapping with PDGFRβ expressed on ASC (F-G). Like PDGFRβ, WAT7 is not associated with CD31+ endothelial cells (E) or CD45+ hematopoietic cells (H). WAT7 was not detected in lung (I) despite the abundance of PDGFRβ+LSC (J). Nuclear TOPRO3 staining is blue. Scale bar: 100 μM.
(§2) Mouse Tissue and Cell Analysis by Immunofluorescence: Peptides chemically synthesized, cyclized via their N- and C-terminal cysteines, purified to at least 95% purity (Genemed), and biotinylated were injected (500 μg) via tail vein and allowed to circulate for 1 hr. […] Fluorescence images were acquired with an Olympus IX70 inverted fluorescence microscope/Magnafire software (Olympus). […]

Data set [2] has as its system CD34+CD31−CD45− cells (MSC) from lung. Briefly: Synchronous in vivo phage display biopanning, clones recovered from lung MSC (LSC). Also noted: species or system mouse. The following applies: percent of sequenced phage clones carrying the insert in lung after 4 rounds of synchronous in vivo biopanning on CD34+CD31−CD45− cells. From the text:
(§3) Phage Library Screening: Random peptide libraries based on the M13-derived bacteriophage vector fUSE5 displaying inserts CX7C, CX8C, and CX9C on the pIII protein were admixed (1:1:1) to the combined 10^10 TU of mixed library for the screen performed based on the synchronous biopanning in vivo upon tail vein injection (see for example, US20050074747 and Arap, et al., Nat. Med. 8:121-127, 2002; Kolonin, et al., FASEB J. 20: 979-981, 2006).
(§4) For competitive homing experiment, 5×10^9 TU for each of the 11 chosen phage clones were admixed and the combined 5.5×10^10 TU was injected. For validation of individual clones, 1×10^10 TU for each phage clones was injected. After 1 hr of circulation and heart perfusion with 10 ml of phosphate buffer saline (PBS), WAT, tibia/femurs, bone-associated skeletal muscle, and lungs were collected. Bone marrow was isolated by flushing tibia/femurs. Hematopoietic and endothelial cells were depleted from cell suspensions of each organ by Dynabeads (Invitrogen) coated with anti-TER119, anti-CD31, and anti-CD45 antibodies (BD Biosciences), after which the remaining cells were processed by FACS to purify CD34+CD31−CD45− cells. Bound phage were recovered by infecting K91 E. coli, quantified by phage transforming unit (TU) counting, and processed for sequencing of the peptide-coding DNA as described in Arap, et al. 2002, ibid and Kolonin, et al., 2006, ibid. For identification of conserved peptide motifs, ClustalW2 software was used.
(§5) Methods for isolation of MSC by fluorescence-activated cell sorting (FACS) from organ cell suspensions based on the C34+CD31−CD45− immunophenotype (FIG. 8B) were combined with phage display and optimized for ASC. By adapting the previously described “synchronous in vivo biopanning” method of (Kolonin et al., 2006, ibid), a mixture of cyclic CX7C, CX8C, and CX9C (C: disulfide-bonded cysteines; X: any amino acid) random peptide libraries was screened (FIG. 1A). This approach made it possible to select MSC probes from the pool of over 10^11 combinatorial peptides. Throughout the screen, progressive enrichment in the number of phage particles recovered on MSC from WAT, as well as from the chosen control organs: lung, bone marrow, and skeletal muscle (FIG. 1B) was observed.
(§6) After 4 rounds of synchronous in vivo biopanning, eight CX7C and CX8C sequences repeatedly recovered from ASC with frequency above 1% were identified, which were termed WAT1 through WAT8 (see Table 1 below). In parallel, a matched number of peptide inserts homing to lung stromal cells (LSC) were sequenced as a control. None of the WAT-homing peptides were enriched in the lung. Four sequences repeatedly recovered in the lung with frequency above 1%, were termed LU1 through LU4 (see Table 1 below). […] Because the focus of this study is WAT-specific MSC, this clone was excluded from further analysis. Other selected peptides were subjected to an in vivo competition assay in order to identify those with the highest specificity of binding. Equal amounts of phage for the 11 clones displaying peptides WAT1 through WAT7 (SEQ ID NOS: 1-14) and LU1 through LU4 (SEQ ID NOS: 17-24) were admixed and injected into a mouse. Homing specificity of each clone was assessed by quantifying frequency of phage coding for each peptide selected on C34+CD31−CD45− cells isolated from either WAT or lung.
(§7) Shown in Table 1 above are the percent (%) of the sequenced phage clones that carried the indicated WAT or LU insert present within WAT (% in WAT) or lung (% in LUNG) following 4 rounds of synchronous in vivo biopanning on CD34+CD31−CD45− cells.

The test system of data set [3] is CD34+CD31−CD45− cells (MSC) from WAT. Briefly: Synchronous in vivo phage display biopanning, clones recovered from WAT MSC (ASC). Details: species or system mouse. To be noted: percent of sequenced phage clones carrying the insert in WAT after 4 rounds of synchronous in vivo biopanning on CD34+CD31−CD45− cells.
Excerpt: as §3, §4, §5, §6, §7

Data set [4] has as its system C34+CD31−CD45− cells isolated from lung. Briefly: In vivo competition (re-homing) assay of 11 admixed phage clones, lung. Details: species or system mouse. The following applies: equal amounts of 11 phage clones mixed and injected; percent of sequenced clones on C34+CD31−CD45− cells from lung. How it is done: as §4, §6
The subject of data set [5] is WAT CD34+CD31−CD45− cells (ASC) versus lung CD34+CD31−CD45− cells (LSC). Briefly: Homing of individual phage-peptide clones injected separately, TU on WAT vs lung MSC. To be noted: individual phage clones injected into mice, FIG. 1C. Format: in vivo, mouse. The source says: FIGS. 1A-C depict the screen for MSC-homing peptides. (A) depicts the schematic for a screen for peptides homing to organ-specific MSC populations. […] In every selection round, erythroid (TER119+), endothelial (CD31+) and hematopoietic (CD45+) cells were immunodepleted and then FACS was used to collect CD34+CD31−CD45− cells (MSC) from WAT, lung, bone marrow, and skeletal muscle. (B) Phage-peptides bound to WAT MSC (ASC), in parallel with phage-peptides bound to MSC of control organs, were quantified, amplified, pooled, and used for the next round of biopanning. Increased recovery of phage transforming units (TU) in successive rounds reflects the enrichment of phage-peptides homing to MSC of individual target organs. (C) Relative specificity of ASC homing assessed for individual phage-peptide clones separately injected into mice as a ratio of TU recovered on WAT to CD34+CD31−CD45− to TU recovered on lung CD34+CD31−CD45− cells. Fd-Tet: control insertless phage. Values shown are mean±SD for triplicate measurements.
For competitive homing experiment, 5×10^9 TU for each of the 11 chosen phage clones were admixed and the combined 5.5×10^10 TU was injected. […] Bound phage were recovered by infecting K91 E. coli, quantified by phage transforming unit (TU) counting, and processed for sequencing of the peptide-coding DNA as described in Arap, et al. 2002, ibid and Kolonin, et al., 2006, ibid. […]

The test system of data set [6] is stroma/vasculature of lung. Put plainly: Biodistribution of peptide-displaying phage by anti-phage immunofluorescence, lung. The following applies: intravenous injection, immunofluorescence of tissue sections. Format: in vivo, mouse.
Excerpt: as §1, §2

For data set [7], the system named is C34+CD31−CD45− cells isolated from WAT. Briefly: In vivo competition (re-homing) assay of 11 admixed phage clones, WAT. Details: species or system mouse. The following applies: equal amounts of 11 phage clones mixed and injected; percent of sequenced clones on C34+CD31−CD45− cells from WAT. How it is done:
as §4, §6

Entries after “also recorded” stand apart in the source; their conditions may differ.

In the case of `NCCCC[C@@H]1NC(=O)[C@H](Cc2c[nH]c3ccccc23)NC(=O)[C@H](CO)NC(=O)[C@@H](N)CSSC[C@@H](C(=O)O)NC(=O)[C@H](CCC(=O)O)NC(=O)CNC(=O)[C@H](Cc2ccccc2)NC(=O)[C@H](Cc2c[nH]c3ccccc23)NC(=O)[C@H](Cc2ccc(O)cc2)NC1=O` [WAT-7, SWKYWFGE], in data set [1], the “co-localization with endothelial cells or CD45+ hematopoietic cells in WAT” value was “did not co-localize”.
AVYRSTG [LU-1]: in data set [2], the “% in LUNG” value was determined as 71.6%. Besides, the “% in WAT” value in data set [3] worked out at 0%. For the same compound, the “Re-home to Lung (%)” value in data set [4] is listed as 52.2%.
Turning to CWLGEWLGC [mPep], in data set [5], the “specificity of homing to ASC compared to lung MSC” value is on record as “modest preference for ASC; also recorded: did not display any WAT specificity”.
On to ESGFPTVG [LU-2, control], for which the “% in LUNG” value in data set [2] was found to be 14.7%. Besides, the “% in WAT” value in data set [3] is recorded as 0%. Besides, in data set [6], the “phage accumulation in lung” value is reported as “associated with the stroma/vasculature of lung”. In addition, the “Re-home to Lung (%)” value in data set [4] is recorded as 40.2%.
GQWLGNWL [WAT-8]: the “% in LUNG” value in data set [2] was 0%. In addition, in data set [3], the “% in WAT” value was 13.6%. In addition, the “Re-home to WAT (%)” value in data set [7] is recorded as 0%. The “specificity of homing to ASC compared to lung MSC” value in data set [5] is listed as “modest preference for ASC”. Moreover, the “Re-home to Lung (%)” value in data set [4] is given as 13.6%.
Take GSGGMSPS [WAT-6]: the “% in LUNG” value in data set [2] was determined as 0%. The “% in WAT” value in data set [3] amounted to 1.9%. Also, the “Re-home to WAT (%)” value in data set [7] came out at 0%. Further, the “Re-home to Lung (%)” value in data set [4] worked out at 1.9%.
IRGKAGR [LU-4]: the “% in LUNG” value in data set [2] was 5.2%. In addition, the “% in WAT” value in data set [3] is 0%. The “Re-home to WAT (%)” value in data set [7] is recorded as 0%. The “Re-home to Lung (%)” value in data set [4] came to 1.1%.
As for KHYGGGVA [WAT-1], the “% in LUNG” value in data set [2] stood at 0%. The “% in WAT” value in data set [3] was 9.1%. Moreover, the “Re-home to WAT (%)” value in data set [7] came to 1.1%. Besides, the “Re-home to Lung (%)” value in data set [4] came out at 9.1%.
As to LGVGPGF [LU-3], the “% in LUNG” value in data set [2] came out at 5.2%. Besides, the “% in WAT” value in data set [3] is on record as 0%. Besides, the “Re-home to WAT (%)” value in data set [7] is given as 0%. Also, the “Re-home to Lung (%)” value in data set [4] was found to be 1.1%.
On to LRQGNPT [WAT-5], for which, in data set [2], the “% in LUNG” value turned out to be 0%. The “% in WAT” value in data set [3] is 1.9%. In data set [7], the “Re-home to WAT (%)” value was determined as 0%. For the same compound, in data set [4], the “Re-home to Lung (%)” value is 1.9%.
As for RFLLPQG [WAT-3], the “% in LUNG” value in data set [2] amounted to 0%. Further, the “% in WAT” value in data set [3] came out at 3.9%. Further, the “Re-home to WAT (%)” value in data set [7] came out at 0%. The “Re-home to Lung (%)” value in data set [4] stood at 3.9%.
For the compound YEGSEVS [WAT-4], the “% in LUNG” value in data set [2] amounted to 0%. Besides, the “% in WAT” value in data set [3] was 2.9%. Moreover, the “Re-home to WAT (%)” value in data set [7] is on record as 0%. The “Re-home to Lung (%)” value in data set [4] was determined as 2.9%.

The values are drawn from patent US9539341B2, “Methods and compositions for targeting adipose cells in mammals” (Board of Regents, the University of Texas System, priority 2011, dated 2017).
